From ChEMBL document CHEMBL1154655, “Curcumin analog cytotoxicity against breast cancer cells: exploitation of a redox-dependent mechanism” (Bioorg Med Chem Lett, 2009) come the findings set out here.

One test has as its system A549. Description: Inhibition of NF-kappaB nuclear translocation in human A549 cells. It counts as functional, cell-based.
In another test the test system is MDA-MB-435. Description: Cytotoxicity against human MDA-MB-435 cells. It counts as functional, cell-based.

`O=C1/C(=C/c2ccccc2F)CNC/C1=C\c1ccccc1F`: the IC50 is 1.3 µM in the test on A549 and 1.5 µM with MDA-MB-435.

For `COc1cc(/C=C/C(=O)CC(=O)/C=C/c2ccc(O)c(OC)c2)ccc1O` [CURCUMIN], the IC50 in the test on A549 is 13 µM.

As for `O=C1/C(=C/c2ccccn2)CNC/C1=C\c1ccccn1`, the IC50 in the test on MDA-MB-435 stood at 1 µM.
